Tested on: patients with allergic rhinitis
Experiment: Clinical application trial for treatment of allergic rhinitis
Type: in vivo, human
Protocol: 1. Clinical data: 60 cases (a total number) of outpatients and inpatients with allergic rhinitis were enrolled, and were randomly divided into a treatment group with 30 patients and a control group with 30 patients.
2. Diagnosis criteria: 2 or more clinical symptoms such as sneezing, clear water-like nasal discharge, nasal congestion, and nasal itching, appearing continuously or continually for 1 hour or more every day. It may be accompanied by eye symptoms such as eye itching and conjunctival hyperemia. Common signs often include pale nasal mucosa, edema, and watery nasal discharge. Positive in the allergen skin prick test.
3. […] The patients in the control group orally took loratadine 10 mg per time, once day, for 30 days.
4. […] Total effective rate=cured rate+effective rate.

CCOC(=O)N1CCC(=C2c3ccc(Cl)cc3CCc3cccnc32)CC1 [loratadine]
recurrence after treatment (6-month follow-up / after drug discontinuance): allergic symptoms appeared after contact with allergens after drug discontinuance
Effective (number of patients) (30 patients per group): 20
Ineffective (number of patients) (30 patients per group): 10
Total effective rate (%) (cured rate + effective rate) (30 patients per group): 66.67%
Cured (number of patients) (30 patients per group, cured = symptoms and signs disappear for 60 days without recurrence): 0
adverse reactions occurred (control group of 30 patients): 5 cases

From patent US20220000894A1, “Substance for treatment or prevention of diseases, method for designing the same, and method for preparing the same” (priority 2018, published 2022)
